In patent US9994558B2, “Multicyclic compounds and methods of using same” (Karyopharm Therapeutics Inc., priority 2013, dated 2018):

Tests used:
Format in all cases: cell-based
[1] = test system: HEP 3B cells; assay: MTT cell proliferation assay, HEP 3B cells; conditions: Hep3B; human hepatocellular carcinoma cells
Protocol: (§1) The MTT cell proliferation assay was used to study the cytotoxic properties of the compounds. The assay was performed according to the method described by Roche Molecular Biochemicals, with minor modifications. The assay is based on the cleavage of the tetrazolium salt, MTT, in the presence of an electron-coupling reagent. The water-insoluble formazan salt produced must be solubilized in an additional step. Cells grown in a 96-well tissue culture plate were incubated with the MTT solution for approximately 4 hours. After this incubation period, a water-insoluble formazan dye formed. After solubilization, the formazan dye was quantitated using a scanning multi-well spectrophotometer (ELISA reader). […] The cells were seeded at 5,000-10,000 cells in each well of 96-well plate in 100 μL of fresh culture medium and were allowed to attach overnight. The stock solutions of the compounds were diluted in 100 μL cell culture medium to obtain eight concentrations of each test compound, ranging from 1 nM to 30 μM. […] All optical densities were measured at 490 nm using a Vmax Kinetic Microplate Reader (Molecular Devices). In most cases, the assay was performed in duplicate and the results were presented as a mean percent inhibition to the negative control±SE. The following formula was used to calculate the percent of inhibition. Inhibition (%)=(1−(ODo/OD))×100. […]

[2] = test system: 3T3 cells; assay: MTT cell proliferation assay, 3T3 cells; conditions: Mus musculus, NIH3T3; 3T3 fibroblast cells; incubation approximately 64-72 hours
Protocol: (§2) The MTT cell proliferation assay was used to study the cytotoxic properties of the compounds. The assay was performed according to the method described by Roche Molecular Biochemicals, with minor modifications. The assay is based on the cleavage of the tetrazolium salt, MTT, in the presence of an electron-coupling reagent. The water-insoluble formazan salt produced must be solubilized in an additional step. Cells grown in a 96-well tissue culture plate were incubated with the MTT solution for approximately 4 hours. After this incubation period, a water-insoluble formazan dye formed. After solubilization, the formazan dye was quantitated using a scanning multi-well spectrophotometer (ELISA reader). […] The cells were seeded at 5,000-10,000 cells in each well of 96-well plate in 100 μL of fresh culture medium and were allowed to attach overnight. The stock solutions of the compounds were diluted in 100 μL cell culture medium to obtain eight concentrations of each test compound, ranging from 1 nM to 30 μM. […] All optical densities were measured at 490 nm using a Vmax Kinetic Microplate Reader (Molecular Devices). In most cases, the assay was performed in duplicate and the results were presented as a mean percent inhibition to the negative control±SE. The following formula was used to calculate the percent of inhibition. Inhibition (%)=(1−(ODo/OD))×100.
(§3) The compounds were tested against MS751, Z138 and 3T3 cells. The MS751 cell line is derived from a metastasis to lymph node of human cervix from a patient diagnosed with squameous cell carcinoma of the cervix. The […] cell line is a mature B-cell acute lymphoblastic leukemia cell line derived from a patient with chronic lymphocytic leukemia. 3T3 cells are standard fibroblast cells; they were originally isolated from Swiss mouse embryo tissue.

[3] = test system: Z138 cells; assay: MTT cell proliferation assay, Z138 cells; conditions: Homo sapiens, Z-138, incubation approximately 64-72 hours
Protocol: as §2, §3

[4] = test system: SNU-182 cell line; assay: MTT cell proliferation assay, SNU-182 cells; conditions: human hepatoma cell line
Protocol: as §1

[5] = test system: UCH-2 cell line; assay: MTT cell proliferation assay, UCH-2 cells; conditions: UCH2; chordoma cell line
Protocol: as §1

[6] = test system: Hep G2 cells; assay: MTT cell proliferation assay, Hep G2 cells; conditions: HepG2; human hepatocellular carcinoma cells
Protocol: as §1

[7] = test system: NHDF cells; assay: MTT cell proliferation assay, NHDF cells; conditions: normal human dermal fibroblast cells
Protocol: as §1

[8] = test system: L3.6pl cell line; assay: MTT cell proliferation assay, L3.6pl cells; conditions: Homo sapiens, pancreatic cancer cell line
Protocol: as §1

[9] = test system: MS751 cells; assay: MTT cell proliferation assay, MS751 cells; conditions: Homo sapiens, incubation approximately 64-72 hours
Protocol: as §2, §3

Row | IC50 [4] [nM] | Compound | IC50 [1] [nM] | IC50 [2] [nM] | IC50 [3] [nM] | IC50 [5] [nM] | IC50 [6] [nM] | IC50 [7] [nM] | IC50 [8] [nM] | IC50 [9] [nM]
1 | < 100 | Nc1ccc(/C=C/C(=O)NCCOc2ccc(-c3ccc(C(=O)N4CC(F)(F)C4)cc3)cc2Cl)cn1 [Compound 318, (E)-3-(6-aminopyridin-3-yl)-N-(2-(3-chloro-4′-(3,3-difluoroazetidine-1-carbonyl)biphenyl-4-yloxy)ethyl)acrylamide] | < 100 | 100 to 5000 | < 100 | > 30000 | < 100 | < 100 | < 100 | < 100
2 | – | CC(C)(CNC(=O)/C=C/c1ccc(N)nc1)Oc1ccc(F)c(-c2ccc(C(=O)N3CCOCC3)cc2)c1 [Compound 340, (E)-3-(6-aminopyridin-3-yl)-N-(2-(6-fluoro-4′-(morpholine-4-carbonyl)biphenyl-3-yloxy)-2-methylpropyl)acrylamide] | – | > 10000 | < 100 | – | – | – | – | 100 to 5000
3 | – | [2H]C([2H])(CNC(=O)/C=C/c1ccc(N)nc1)Oc1ccc(-c2ccc(C(=O)N3CCOCC3)cc2)cc1Cl [Compound 342, (E)-3-(6-aminopyridin-3-yl)-N-(2,2-dideutero-2-(3-chloro-4′-(morpholine-4-carbonyl)biphenyl-4-yloxy)ethyl)acrylamide] | – | 100 to 5000 | < 100 | – | – | – | – | < 100
4 | – | [2H]C([2H])(CNC(=O)/C=C/c1ccc(N)nc1)Oc1ccc(F)c(-c2ccc(C(=O)N3CCOCC3)cc2)c1 [Compound 343, (E)-3-(6-aminopyridin-3-yl)-N-(2,2-dideutero-2-(6-fluoro-4′-(morpholine-4-carbonyl)biphenyl-3-yloxy)ethyl)acrylamide] | – | > 10000 | 100 to 5000 | – | – | – | – | 100 to 5000
5 | – | Nc1ccc(/C=C/C(=O)NCCOc2cc(Cl)cc(-c3ccc(C(=O)N4CCOCC4)cc3)c2)cn1 [Compound 344, (E)-3-(6-aminopyridin-3-yl)-N-(2-(5-chloro-4′-(morpholine-4-carbonyl)biphenyl-3-yloxy)ethyl)acrylamide] | – | 100 to 5000 | < 100 | – | – | – | – | < 100
6 | – | Nc1ccc(/C=C/C(=O)NCCCOc2cc(Cl)cc(-c3ccc(C(=O)N4CCOCC4)cc3)c2)cn1 [Compound 345, (E)-3-(6-aminopyridin-3-yl)-N-(3-(5-chloro-4′-(morpholine-4-carbonyl)biphenyl-3-yloxy)propyl)acrylamide] | – | 100 to 5000 | < 100 | – | – | – | – | < 100
7 | – | CC(C)(CNC(=O)/C=C/c1ccc(N)nc1)Oc1cc(Cl)cc(-c2ccc(C(=O)N3CCOCC3)cc2)c1 [Compound 347, (E)-3-(6-aminopyridin-3-yl)-N-(2-(5-chloro-4′-(morpholine-4-carbonyl)biphenyl-3-yloxy)-2-methylpropyl)acrylamide] | – | > 10000 | < 100 | – | – | – | – | 100 to 5000
8 | – | Nc1ccc(/C=C/C(=O)NCCCOc2ccc(-c3ccc(C(=O)N4CCOCC4)cc3)cc2Cl)cn1 [Compound 348, (E)-3-(6-aminopyridin-3-yl)-N-(3-(3-chloro-4′-(morpholine-4-carbonyl)biphenyl-4-yloxy)propyl)acrylamide] | – | 100 to 5000 | < 100 | – | – | – | – | < 100
9 | – | Nc1ccc(/C=C/C(=O)NCC(F)(F)COc2ccc(-c3ccc(C(=O)N4CCOCC4)cc3)cc2Cl)cn1 [Compound 349, (E)-3-(6-aminopyridin-3-yl)-N-(3-(3-chloro-4′-(morpholine-4-carbonyl)biphenyl-4-yloxy)-2,2-difluoropropyl)acrylamide] | – | 100 to 5000 | < 100 | – | – | – | – | < 100
10 | – | CC(C)(CNC(=O)/C=C/c1ccc(N)nc1)COc1ccc(-c2ccc(C(=O)N3CCOCC3)cc2)cc1Cl [Compound 350, (E)-3-(6-Aminopyridin-3-yl)-N-(3-((3-chloro-4′-(morpholine-4-carbonyl)-[1,1′-biphenyl]-4-yl)oxy)-2,2-dimethylpropyl)acrylamide] | – | 100 to 5000 | < 100 | – | – | – | – | 100 to 5000
11 | – | Nc1ccc(/C=C/C(=O)NCCOc2ccc(-c3nnc(C(=O)N4CCOCC4)o3)cc2Cl)cn1 [Compound 351, (E)-3-(6-aminopyridin-3-yl)-N-(2-(2-chloro-4-(5-(morpholine-4-carbonyl)-1,3,4-oxadiazol-2-yl)phenoxy)ethyl)acrylamide] | – | > 10000 | 100 to 5000 | – | – | – | – | 100 to 5000
12 | – | CC(CCOc1cc(-c2ccc(C(=O)N3CCC(F)(F)CC3)cn2)cc(C(F)(F)F)c1)NC(=O)/C=C/c1ccc(N)nc1 (stereo not drawn) [Compound 352, (E)-3-(6-aminopyridin-3-yl)-N-(4-(3-(5-(4,4-difluoropiperidine-1-carbonyl)pyridin-2-yl)-5-(trifluoromethyl)phenoxy)butan-2-yl)acrylamide] | – | > 10000 | 100 to 5000 | – | – | – | – | 100 to 5000
13 | – | Nc1ccc(CNC(=O)/C=C/COc2ccc(-c3ccc(C(=O)N4CCC(F)(F)CC4)cn3)cc2C(F)(F)F)cn1 [Compound 353, (E)-N-((6-aminopyridin-3-yl)methyl)-4-(4-(5-(4,4-difluoropiperidine-1-carbonyl)pyridin-2-yl)-2-(trifluoromethyl)phenoxy)but-2-enamide] | – | > 10000 | 100 to 5000 | – | – | – | – | 100 to 5000
14 | – | Nc1ccc(CNC(=O)/C=C\COc2ccc(-c3ccc(C(=O)N4CCC(F)(F)CC4)cn3)cc2C(F)(F)F)cn1 [Compound 354, (Z)—N-((6-aminopyridin-3-yl)methyl)-4-(4-(5-(4,4-difluoropiperidine-1-carbonyl)pyridin-2-yl)-2-(trifluoromethyl)phenoxy)but-2-enamide] | – | > 10000 | > 10000 | – | – | – | – | > 10000
15 | – | Nc1ccc(/C=C/C(=O)NCCOc2ccc(-c3ccc(C(=O)N4CCC(F)(F)CC4)cn3)cc2C(F)(F)F)cn1 [Compound 355, (E)-3-(6-aminopyridin-3-yl)-N-(2-(4-(5-(4,4-difluoropiperidine-1-carbonyl)pyridin-2-yl)-2-(trifluoromethyl)phenoxy)ethyl)acrylamide] | – | 100 to 5000 | < 100 | – | – | – | – | < 100
